Tested on: 883617-216-R-J1-PDC tumor spheroids, viability
Assay: Anticancer human tumor 883617-216-R-J1-PDC patient-derived bladder carcinoma cell line growth inhibition [PI3K]
Details: spheroids with HUVEC and MSC; for IC50: curve of first compound; for viability, T/C: stronger effect = lower value
In short: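 Agents were dosed from a top concentration near clinical Cmax (otherwise 10 microM) in half-log decrements, alone or combined with PI3K inhibitors. The spheroids contain tumor cells plus endothelial (HUVEC) and MSC stroma; viability is measured.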

[1] = second compound 0.0316 µM, first compound 0.0316 µM
[2] = second compound 0.0316 µM, first compound 0.1 µM
[3] = second compound 0.0316 µM, first compound 0.316 µM
[4] = second compound 0.0316 µM, first compound 1 µM
[5] = second compound 0.0316 µM, first compound 3.16 µM
[6] = second compound 0.0316 µM, first compound 10 µM
[7] = second compound 0.1 µM, first compound 0.0316 µM
[8] = second compound 0.1 µM, first compound 0.1 µM
[9] = second compound 0.1 µM, first compound 0.316 µM
[10] = second compound 0.1 µM, first compound 1 µM
[11] = second compound 0.1 µM, first compound 3.16 µM
[12] = second compound 0.1 µM, first compound 10 µM
[13] = second compound 0.316 µM, first compound 0.0316 µM
[14] = second compound 0.316 µM, first compound 0.1 µM
[15] = second compound 0.316 µM, first compound 0.316 µM
[16] = second compound 0.316 µM, first compound 1 µM
[17] = second compound 0.316 µM, first compound 3.16 µM
[18] = second compound 0.316 µM, first compound 10 µM
[19] = second compound 1 µM, first compound 0.0316 µM
[20] = second compound 1 µM, first compound 0.1 µM
[21] = second compound 1 µM, first compound 0.316 µM
[22] = second compound 1 µM, first compound 1 µM
[23] = second compound 1 µM, first compound 3.16 µM
[24] = second compound 1 µM, first compound 10 µM
[25] = second compound 3.16 µM, first compound 0.0316 µM
[26] = second compound 3.16 µM, first compound 0.1 µM
[27] = second compound 3.16 µM, first compound 0.316 µM
[28] = second compound 3.16 µM, first compound 1 µM
[29] = second compound 3.16 µM, first compound 3.16 µM
[30] = second compound 3.16 µM, first compound 10 µM
[31] = second compound 10 µM, first compound 0.0316 µM
[32] = second compound 10 µM, first compound 0.1 µM
[33] = second compound 10 µM, first compound 0.316 µM
[34] = second compound 10 µM, first compound 1 µM
[35] = second compound 10 µM, first compound 3.16 µM
[36] = second compound 10 µM, first compound 10 µM
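Also: spheroids exposed to agents for 7 days before the viability read.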

`C#Cc1c(F)ccc2cc(O)cc(-c3ncc4c(N5CC6CCC(C5)N6)nc(OCC56CCCN5CC(F)C6)nc4c3F)c12` (stereo unspecified) + CC(Nc1ncnc2nc[nH]c12)c1cc2cccc(Cl)c2c(=O)n1-c1ccccc1 showed an IC50 (second compound 0.0316 µM) of over 10 µM, an IC50 (second compound 0.1 µM) of over 10 µM and an IC50 (second compound 0.316 µM) of over 10 µM. For the same compound, the IC50 (second compound 1 µM) was over 10 µM, the IC50 (second compound 3.16 µM) was 5.97 µM and the IC50 (second compound 10 µM) was 0.12 µM. For the same compound, the viability, T/C [1] was 91.5%, the viability, T/C [2] was 109% and the viability, T/C [3] was 84.2%. It also gave a viability, T/C [4] of 94.8%, a viability, T/C [5] of 78% and a viability, T/C [6] of 61.1%. The viability, T/C [7] was 101%, the viability, T/C [8] was 96.7% and the viability, T/C [9] was 95.1%. For the same compound, the viability, T/C [10] was 84.9%, the viability, T/C [11] was 94.8% and the viability, T/C [12] was 56.5%. The viability, T/C [13] was 77.6%, the viability, T/C [14] was 86.1% and the viability, T/C [15] was 78.5%. It also gave a viability, T/C [16] of 94.3%, a viability, T/C [17] of 76.4% and a viability, T/C [18] of 54.5%. It also gave a viability, T/C [19] of 84.1%, a viability, T/C [20] of 81.9% and a viability, T/C [21] of 74.2%. The viability, T/C [22] was 73%, the viability, T/C [23] was 69.9% and the viability, T/C [24] was 49.7%. The viability, T/C [25] was 77.6%, the viability, T/C [26] was 70.4% and the viability, T/C [27] was 60.3%. The viability, T/C [28] was 70.7%, the viability, T/C [29] was 55.1% and the viability, T/C [30] was 44.3%. The viability, T/C [31] was 52.1%, the viability, T/C [32] was 56.4% and the viability, T/C [33] was 39.1%. The viability, T/C [34] was 45.1%, the viability, T/C [35] was 33.2% and the viability, T/C [36] was 26.6%.

`C=CC(=O)N1CCN(c2nc(=O)n(-c3c(C)ccnc3C(C)C)c3nc(-c4c(O)cccc4F)c(F)cc23)C(C)C1` (stereo unspecified) + CC(Nc1ncnc2nc[nH]c12)c1cc2cccc(Cl)c2c(=O)n1-c1ccccc1 was tested, and the IC50 (second compound 0.0316 µM) was over 10 µM, the IC50 (second compound 0.1 µM) was over 10 µM and the IC50 (second compound 0.316 µM) was under 0.0316 µM. For the same compound, the IC50 (second compound 1 µM) was 0.0739 µM, the IC50 (second compound 3.16 µM) was under 0.0316 µM and the IC50 (second compound 10 µM) was under 0.0316 µM. It also gave a viability, T/C [1] of 59.4%, a viability, T/C [2] of 41.1% and a viability, T/C [3] of 49.5%. For the same compound, the viability, T/C [4] was 55.3%, the viability, T/C [5] was 59.9% and the viability, T/C [6] was 64.2%. The viability, T/C [7] was 60.9%, the viability, T/C [8] was 46.9% and the viability, T/C [9] was 48.4%. The viability, T/C [10] was 57.9%, the viability, T/C [11] was 63.4% and the viability, T/C [12] was 62%. For the same compound, the viability, T/C [13] was 55.9%, the viability, T/C [14] was 43.4% and the viability, T/C [15] was 40.8%. It also gave a viability, T/C [16] of 59.1%, a viability, T/C [17] of 48.7% and a viability, T/C [18] of 54.8%. It also gave a viability, T/C [19] of 63.3%, a viability, T/C [20] of 45.2% and a viability, T/C [21] of 43%. The viability, T/C [22] was 45.7%, the viability, T/C [23] was 37.1% and the viability, T/C [24] was 45.6%. It also gave a viability, T/C [25] of 43.2%, a viability, T/C [26] of 36.2% and a viability, T/C [27] of 27.2%. It also gave a viability, T/C [28] of 37.5%, a viability, T/C [29] of 37.6% and a viability, T/C [30] of 45.4%. For the same compound, the viability, T/C [31] was 26.1%, the viability, T/C [32] was 20.1% and the viability, T/C [33] was 19.6%. For the same compound, the viability, T/C [34] was 21.9%, the viability, T/C [35] was 28.8% and the viability, T/C [36] was 31.7%.

With `CC(Cn1ccc(-c2ccc(C#N)c(Cl)c2)n1)NC(=O)c1cc(C(C)O)[nH]n1` (stereo unspecified) + CC(Nc1ncnc2nc[nH]c12)c1cc2cccc(Cl)c2c(=O)n1-c1ccccc1 the IC50 (second compound 0.0316 µM) was over 10 µM, the IC50 (second compound 0.1 µM) was over 10 µM and the IC50 (second compound 0.316 µM) was over 10 µM. For the same compound, the IC50 (second compound 1 µM) was over 10 µM, the IC50 (second compound 3.16 µM) was over 10 µM and the IC50 (second compound 10 µM) was under 0.0316 µM. It also gave a viability, T/C [1] of 98.1%, a viability, T/C [2] of 104% and a viability, T/C [3] of 90.5%. It also gave a viability, T/C [4] of 103%, a viability, T/C [5] of 103% and a viability, T/C [6] of 95.3%. It also gave a viability, T/C [7] of 94.5%, a viability, T/C [8] of 84.7% and a viability, T/C [9] of 84.6%. It also gave a viability, T/C [10] of 100%, a viability, T/C [11] of 95.3% and a viability, T/C [12] of 97%. It also gave a viability, T/C [13] of 95.8%, a viability, T/C [14] of 92.9% and a viability, T/C [15] of 90.7%. It also gave a viability, T/C [16] of 97.9%, a viability, T/C [17] of 95.5% and a viability, T/C [18] of 90.7%. For the same compound, the viability, T/C [19] was 78.3%, the viability, T/C [20] was 77.1% and the viability, T/C [21] was 78.3%. For the same compound, the viability, T/C [22] was 86.9%, the viability, T/C [23] was 90.8% and the viability, T/C [24] was 76.8%. For the same compound, the viability, T/C [25] was 76.7%, the viability, T/C [26] was 70.9% and the viability, T/C [27] was 61.2%. It also gave a viability, T/C [28] of 61%, a viability, T/C [29] of 68.1% and a viability, T/C [30] of 74.2%. It also gave a viability, T/C [31] of 52.9%, a viability, T/C [32] of 43.1% and a viability, T/C [33] of 44.6%. It also gave a viability, T/C [34] of 51.4%, a viability, T/C [35] of 43.7% and a viability, T/C [36] of 50%.

From PubChem BioAssay AID1963973 (Molecular Pharmacology Branch, DTP, NCI, 2024)
